# Measurements: PMC9011347, “Small-Molecule Inhibitors Targeting Lipolysis in Human Adipocytes” (Journal of the American Chemical Society, 2022)
# Biological target: T1, mouse ATGL I69F/T146G double mutant (Mus musculus, UniProt Q8BJ56, I69F/T146G)
# T1 construct: host or cells: Expi293 cells, cell lysate
# Assay: TAG hydrolase assay, humanized mouse ATGL variants
# Format: biochemical
# Settings: I69F/T146G double mutant of mouse ATGL
# From the text: The region between aa 60 and 146 of human and mouse ATGL comprises 12 nonidentical aa. We generated 3D homology models for the minimal active domain of mouse ATGL to obtain more detailed insight into the topology of the relevant region (Figure 5d). Based on this model, aa T101, C106, R109, N111, and S133 locate at peripheral (loop) regions (indicated in orange, Figure 5d). […] For all other nonidentical aa (indicated in magenta, Figure 5d), we generated variants with single aa substitutions. The humanized variants A60V, N68K, T93I, and C97F were inactivated by Ai but not NG-497 (Figure 5a).
# Figure 6 Identification of the molecular scaffold determining species selectivity. (a) Schematic view of mouse ATGL variants, which are sensitive to NG-497 inhibition. Humanized aa are indicated in red and nonidentical aa are indicated in dark blue. (b) Dose-dependent inhibition of the I69F/T146G double mutant, the I69F/T93I/C97F/T146G quadruple mutant, and human ATGL. (c) Dose-dependent inhibition of triple mutants I69F/T93I/T146G and I69F/C97F/T146G, and human ATGL. IC50 values are shown in the insets. […]
# Expression of recombinant ATGL constructs and preparation of cell lysates. […] Protein concentrations were determined using Bio-Rad protein assay (Bio-Rad 785, Bio-Rad Laboratories, Munich, Germany) using BSA as standard. […]
# T1 sequence (Q8BJ56 whole entry I69F/T146G): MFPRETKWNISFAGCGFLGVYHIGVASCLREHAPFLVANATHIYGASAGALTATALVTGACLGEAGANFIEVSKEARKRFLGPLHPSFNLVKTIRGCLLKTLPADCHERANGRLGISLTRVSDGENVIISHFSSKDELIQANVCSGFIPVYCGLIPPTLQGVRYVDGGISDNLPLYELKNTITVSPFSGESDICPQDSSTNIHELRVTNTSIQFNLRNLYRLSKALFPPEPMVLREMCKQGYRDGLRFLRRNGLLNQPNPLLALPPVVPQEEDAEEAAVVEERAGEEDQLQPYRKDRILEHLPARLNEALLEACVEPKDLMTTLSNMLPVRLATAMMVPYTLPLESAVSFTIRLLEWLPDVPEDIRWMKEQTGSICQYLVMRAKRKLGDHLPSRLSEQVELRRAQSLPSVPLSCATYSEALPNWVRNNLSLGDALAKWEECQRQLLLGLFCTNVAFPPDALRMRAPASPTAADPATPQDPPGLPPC
structure (smiles),measurement,value
CCOc1ccc(-c2cc(OC)cc(C(=O)OC(C)C)n2)cc1 [NG-497],IC50,9 µM
